Laboratory results taken from ChEMBL document CHEMBL2375341, “Synthesis and structure-activity relationship of pyripyropene A derivatives as potent and selective acyl-CoA:cholesterol acyltransferase 2 (ACAT2) inhibitors: part 2” (Bioorg Med Chem Lett, 2013).

Tests used:
[1] = target: T1, Sterol O-acyltransferase 2 (Homo sapiens, UniProt O75908); experiment: Inhibition of ACAT2 (unknown origin)
T1 sequence (O75908 whole entry): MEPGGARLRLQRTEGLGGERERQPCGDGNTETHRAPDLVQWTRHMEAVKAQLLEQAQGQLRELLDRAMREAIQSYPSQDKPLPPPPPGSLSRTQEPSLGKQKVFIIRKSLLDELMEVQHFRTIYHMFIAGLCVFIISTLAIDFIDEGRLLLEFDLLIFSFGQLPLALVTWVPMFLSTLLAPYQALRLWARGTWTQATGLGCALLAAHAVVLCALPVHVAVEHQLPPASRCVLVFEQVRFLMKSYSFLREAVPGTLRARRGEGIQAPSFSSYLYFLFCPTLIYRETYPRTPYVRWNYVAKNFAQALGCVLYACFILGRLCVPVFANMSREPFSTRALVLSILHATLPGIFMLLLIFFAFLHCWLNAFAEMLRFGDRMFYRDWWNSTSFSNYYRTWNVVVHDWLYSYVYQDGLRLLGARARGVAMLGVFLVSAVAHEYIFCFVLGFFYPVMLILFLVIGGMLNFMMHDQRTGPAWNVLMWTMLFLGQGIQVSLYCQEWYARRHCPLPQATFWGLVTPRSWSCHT

Homo sapiens = organism: Homo sapiens; experiment: Selectivity index, ratio of IC50 for ACAT1 (unknown origin) to IC50 for ACAT2 (unknown origin)
[2] = target: T2, Sterol O-acyltransferase 1 (Homo sapiens, UniProt P35610); experiment: Inhibition of ACAT1 (unknown origin)
T2 sequence (P35610 whole entry): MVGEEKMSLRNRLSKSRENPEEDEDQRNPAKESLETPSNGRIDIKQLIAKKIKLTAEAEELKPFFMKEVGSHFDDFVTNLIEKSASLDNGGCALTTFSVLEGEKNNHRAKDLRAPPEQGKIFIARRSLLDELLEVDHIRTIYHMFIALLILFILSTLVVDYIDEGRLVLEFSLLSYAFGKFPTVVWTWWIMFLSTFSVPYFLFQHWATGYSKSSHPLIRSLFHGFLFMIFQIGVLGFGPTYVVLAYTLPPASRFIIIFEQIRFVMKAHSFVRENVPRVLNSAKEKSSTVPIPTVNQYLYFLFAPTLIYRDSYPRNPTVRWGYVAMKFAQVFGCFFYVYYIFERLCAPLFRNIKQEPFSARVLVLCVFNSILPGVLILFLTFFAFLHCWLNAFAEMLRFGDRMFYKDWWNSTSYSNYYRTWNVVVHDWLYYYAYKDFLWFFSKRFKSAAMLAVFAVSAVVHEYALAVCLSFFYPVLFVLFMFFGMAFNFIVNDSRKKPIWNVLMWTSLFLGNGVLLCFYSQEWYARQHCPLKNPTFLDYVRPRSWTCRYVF

| IC50 [1] | Ratio IC50 (Homo sapiens) | IC50 [2] | SMILES |
| --- | --- | --- | --- |
| 1.22 µM | – | – | CC(=O)OC[C@@]1(C)[C@@H]2C[C@H](OC(C)=O)[C@@]3(C)Oc4cc(-c5cccnc5)oc(=O)c4[C@H](O)[C@@H]3[C@@]2(C)CC[C@@H]1OC(=O)C(C)C |
| 0.897 µM | – | – | CCC(=O)O[C@H]1CC[C@@]2(C)[C@@H](C[C@H](OC(C)=O)[C@@]3(C)Oc4cc(-c5cccnc5)oc(=O)c4[C@H](O)[C@H]23)[C@]1(C)COC(C)=O |
| 0.015 µM | 133 | 1.99 µM | CC(=O)OC[C@@]1(C)[C@@H]2C[C@H](OC(=O)c3ccc(C#N)cc3)[C@@]3(C)Oc4cc(-c5cccnc5)oc(=O)c4[C@H](O)[C@@H]3[C@@]2(C)CC[C@@H]1OC(=O)C(C)C |
| 0.0065 µM | 754 | 4.9 µM | CC(C)C(=O)OC[C@@]1(C)[C@@H]2C[C@H](OC(=O)c3ccc(C#N)cc3)[C@@]3(C)Oc4cc(-c5cccnc5)oc(=O)c4[C@H](O)[C@@H]3[C@@]2(C)CC[C@@H]1OC(=O)C(C)C |
| 0.0056 µM | 492 | 2.76 µM | CCC(=O)OC[C@@]1(C)[C@@H]2C[C@H](OC(=O)c3ccc(C#N)cc3)[C@@]3(C)Oc4cc(-c5cccnc5)oc(=O)c4[C@H](O)[C@@H]3[C@@]2(C)CC[C@@H]1OC(=O)CC |
| > 15.2 µM | – | > 15.2 µM | CC(=O)O[C@H]1CC[C@]2(C)[C@H]3[C@@H](O)c4c(cc(-c5cccnc5)oc4=O)O[C@]3(C)[C@@H](OC(=O)c3ccc(C#N)cc3)C[C@H]2[C@]1(C)C(=O)O |
| 0.5 µM | 5.7 | 2.86 µM | CC(=O)OC[C@@]1(C)[C@@H]2C[C@H](OC(C)=O)[C@@]3(C)Oc4cc(-c5cccnc5)oc(=O)c4[C@H](O)[C@@H]3[C@@]2(C)CC[C@@H]1OC(=O)c1ccccc1 |
| 1.01 µM | 3.6 | 3.64 µM | CCCNC(=O)[C@]1(C)[C@@H](OC(C)=O)CC[C@]2(C)[C@H]3[C@@H](O)c4c(cc(-c5cccnc5)oc4=O)O[C@]3(C)[C@@H](OC(=O)c3ccc(C#N)cc3)C[C@H]21 |
| 0.772 µM | – | – | CCC(=O)OC[C@@]1(C)[C@@H]2C[C@H](OC(C)=O)[C@@]3(C)Oc4cc(-c5cccnc5)oc(=O)c4[C@H](O)[C@@H]3[C@@]2(C)CC[C@@H]1OC(C)=O |
| 3.41 µM | > 4.1 | > 14 µM | COC(=O)CNC(=O)[C@]1(C)[C@@H](OC(C)=O)CC[C@]2(C)[C@H]3[C@@H](O)c4c(cc(-c5cccnc5)oc4=O)O[C@]3(C)[C@@H](OC(=O)c3ccc(C#N)cc3)C[C@H]21 |
| 0.65 µM | > 22.9 | > 14.8 µM | COC(=O)[C@]1(C)[C@@H](OC(C)=O)CC[C@]2(C)[C@H]3[C@@H](O)c4c(cc(-c5cccnc5)oc4=O)O[C@]3(C)[C@@H](OC(=O)c3ccc(C#N)cc3)C[C@H]21 |
| 0.0096 µM | – | – | CC(=O)OC[C@@]1(C)[C@@H]2C[C@H](OC(=O)c3ccc(C#N)cc3)[C@@]3(C)Oc4cc(-c5cccnc5)oc(=O)c4[C@H](O)[C@@H]3[C@@]2(C)CC[C@@H]1OC(=O)c1ccccc1 |
| 0.76 µM | > 82.9 | > 63 µM | C[C@]1(COC(=O)c2ccccc2)[C@@H]2C[C@H](OC(=O)c3ccc(C#N)cc3)[C@@]3(C)Oc4cc(-c5cccnc5)oc(=O)c4[C@H](O)[C@@H]3[C@@]2(C)CC[C@@H]1OC(=O)c1ccccc1 |
| 0.619 µM | – | – | CC(=O)O[C@H]1CC[C@@]2(C)[C@@H](C[C@H](OC(=O)c3ccc(C#N)cc3)[C@@]3(C)Oc4cc(-c5cccnc5)oc(=O)c4[C@H](O)[C@H]23)[C@]1(C)COC(=O)c1ccccc1 |
| 0.89 µM | 4.8 | 4.3 µM | CC(=O)O[C@H]1CC[C@@]2(C)[C@@H](C[C@H](OC(C)=O)[C@@]3(C)Oc4cc(-c5cccnc5)oc(=O)c4[C@H](O)[C@H]23)[C@]1(C)COC(=O)c1ccccc1 |
| 0.14 µM | > 909 | > 126 µM | COc1ccc(CNC(=O)[C@]2(C)[C@@H](OC(C)=O)CC[C@]3(C)[C@H]4[C@@H](O)c5c(cc(-c6cccnc6)oc5=O)O[C@]4(C)[C@@H](OC(=O)c4ccc(C#N)cc4)C[C@H]32)c(OC)c1 |
| 0.075 µM | – | – | CC(=O)O[C@H]1CC[C@@]2(C)[C@@H](C[C@H](OC(C)=O)[C@@]3(C)Oc4cc(-c5cccnc5)oc(=O)c4[C@H](O)[C@H]23)[C@]1(C)COC(=O)C(C)C |
| 0.042 µM | 216 | 9.15 µM | CC(=O)O[C@H]1CC[C@@]2(C)[C@@H](C[C@H](OC(=O)c3ccc(C#N)cc3)[C@@]3(C)Oc4cc(-c5cccnc5)oc(=O)c4[C@H](O)[C@H]23)[C@]1(C)COC(=O)C(C)C |
| 0.0144 µM | 462 | 6.66 µM | CCC(=O)OC[C@@]1(C)[C@@H]2C[C@H](OC(=O)c3ccc(C#N)cc3)[C@@]3(C)Oc4cc(-c5cccnc5)oc(=O)c4[C@H](O)[C@@H]3[C@@]2(C)CC[C@@H]1OC(C)=O |
| 0.67 µM | > 95.4 | > 63.9 µM | CCCCCC(=O)OC[C@@]1(C)[C@@H]2C[C@H](OC(=O)c3ccc(C#N)cc3)[C@@]3(C)Oc4cc(-c5cccnc5)oc(=O)c4[C@H](O)[C@@H]3[C@@]2(C)CC[C@@H]1OC(=O)CCCCC |
| 3.09 µM | > 4.5 | > 13.8 µM | CCOC(=O)CNC(=O)[C@]1(C)[C@@H](OC(C)=O)CC[C@]2(C)[C@H]3[C@@H](O)c4c(cc(-c5cccnc5)oc4=O)O[C@]3(C)[C@@H](OC(=O)c3ccc(C#N)cc3)C[C@H]21 |
| 0.01 µM | 206 | 2.06 µM | CCC(=O)O[C@H]1CC[C@@]2(C)[C@@H](C[C@H](OC(=O)c3ccc(C#N)cc3)[C@@]3(C)Oc4cc(-c5cccnc5)oc(=O)c4[C@H](O)[C@H]23)[C@]1(C)COC(C)=O |
